Experimental data: patent publication US8796175B2, “Method for enhancing plant intrinsic defense” (Bayer CropScience AG, priority 2008, dated 2014)

Test system: Tomato (Solanum lycopersicum 'Rentita')
Test: Root growth test of tomatoes under oxygen deficiency conditions in the nutrient solution
Assay type: in vivo
Details: 1.0 mg a.i./plant, floating box, nutrient solution not aerated (oxygen deficiency stress), average of maximum root length per plant
Description: To prepare a suitable solution of the preparation, 1 part by weight of active substance is mixed with water to give the desired concentration.
Tomato seeds (Solanum lycopersicum ‘Rentita’) are grown in rock wool. After germination, the rock wool blocks are transferred into a floating box provided with the solution of the preparation and grown on under suitable climatic conditions.
The nutrient solution of the floating box was not aerated (oxygen deficiency stress).
After the desired period of time, the maximum length of the root per tomato plant is measured, and the average root length per floating box and treatment is calculated.

CC(c1ccc(C(F)(F)F)nc1)S(C)(=O)=NC#N (stereo not shown) [Compound (I-8)]
Root growth of tomatoes: Length in cm after 4 d: 6.7 cm
